Key:
human eosinophils = assay: Histamine-induced shape change assay (Gated Autofluorescence Forward Scatter assay, GAFS) in human eosinophils; assay type: cell-based; details: Eosinophil, stimulated with 300 nM histamine
Method: Histamine-induced Shape Change Assay (Gated Autofluorescence Forward Scatter Assay, GAFS) in Human Eosinophils
In this assay the shape change induced by histamine in human eosinophils is determined by flow cytometry, detected as an increase in the size of the cells (forward scatter, FSC).
Polymorphonuclear leucocytes (PMNL, fraction containing neutrophils and eosinophils) were prepared from whole blood of human healthy volunteers. Briefly, erythrocytes were separated by sedimentation in 1.2% Dextran (SIGMA), and the leucocyte-rich fraction (PMNL) was isolated from the top layer by centrifugation at 450 g for 20 min in the presence of Ficoll-Paque® (Biochrom). PMNLs were resuspended in PBS buffer at a concentration of 1.1×10^6 cells/ml/tube and were pretreated with different concentrations of test compounds (dissolved in PBS) for 30 min at 37° C. and then stimulated with 300 nM histamine (Fluka) for 5 min. Finally, paraformaldehyde (1% final concentration in PBS) was added to terminate the reaction and maintain cell shape. Cell shape change was analyzed by flow cytometry (FACS Calibur, BD Biosystems). Eosinophils in PMNL were gated based on their higher autofluorescence relative to that of neutrophils (fluorescence channel FL2). Cell shape change was monitored in forward scatter signals (FSC). Results are expressed as percentage inhibition of shape change induced by histamine for each concentration of test compound.

[1] = target: T1, human histamine H4 receptor (Homo sapiens, UniProt Q9H3N8); assay: Competitive binding assay of [3H]-histamine to the human histamine H4 receptor; details: 10 nM [3H]-histamine, CHO membrane extract; for inhibition at 1 µM: at a concentration of 1 μM
T1 construct: purchased Euroscreen/Perkin-Elmer
Method: Competitive Binding Assay of [^3H]-histamine to the Human Histamine H4 Receptor
To perform the binding assay, membrane extracts prepared from a stable CHO recombinant cell line expressing the human histamine H4 receptor (Euroscreen/Perkin-Elmer) were used.
The compounds to be tested were incubated at the desired concentration in duplicate with 10 nM [^3H]-histamine and 15 μg membrane extract in a total volume of 250 μL of 50 mM Tris-HCl, pH 7.4, 1.25 mM EDTA for 60 minutes at 25° C. Non-specific binding was defined in the presence of 100 μM of unlabelled histamine. The reaction was stopped by filtration using a vacuum collector (Multiscreen Millipore) in 96-well plates (MultiScreen HTS Millipore) that had been previously soaked in 0.5% polyethylenimine for 2 hours at 0° C. The plates were subsequently washed with 50 mM Tris (pH 7.4), 1.25 mM EDTA at 0° C., and the filters were dried for 1 hour at 50-60° C., before adding the scintillation liquid in order to determine bound radioactivity by means of a betaplate scintillation counter.

T1 sequence (Q9H3N8 whole entry): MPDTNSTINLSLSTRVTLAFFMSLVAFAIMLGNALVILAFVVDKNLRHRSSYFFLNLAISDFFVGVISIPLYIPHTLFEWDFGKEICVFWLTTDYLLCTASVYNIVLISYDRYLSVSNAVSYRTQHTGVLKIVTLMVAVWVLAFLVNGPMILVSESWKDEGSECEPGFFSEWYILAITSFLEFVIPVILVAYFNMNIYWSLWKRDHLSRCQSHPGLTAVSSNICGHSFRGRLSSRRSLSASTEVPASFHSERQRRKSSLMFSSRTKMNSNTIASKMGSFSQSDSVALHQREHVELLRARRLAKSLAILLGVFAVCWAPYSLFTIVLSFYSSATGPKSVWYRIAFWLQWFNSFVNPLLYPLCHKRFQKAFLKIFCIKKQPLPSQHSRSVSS

CN[C@@H]1CCN(c2cc(N)nc(CC(C)(C)C)n2)C1 [Example 22, 2-(2,2-Dimethylpropyl)-6-((3R)-3-(methylamino)pyrrolidin-1-yl)pyrimidin-4-amine]
inhibition at 1 µM (human eosinophils): > 50% | inhibition at 10 µM [1]: > 50%

CN[C@@H]1CCN(c2cc(N)nc(C3CC3)n2)C1 [Example 10, 2-Cyclopropyl-6-((3R)-3-(methylamino)pyrrolidin-1-yl)pyrimidin-4-amine]
inhibition at 1 µM [1]: > 50%

CC(C)Cc1nc(N)cc(N2CC[C@@H](N)C2)n1 [Example 16, 6-((3R)-3-aminopyrrolidin-1-yl)-2-isobutylpyrimidin-4-amine]
inhibition at 10 µM [1]: > 50%

CN[C@@H]1CCN(c2cc(N)nc(C(C)(C)C)n2)C1 [Example 11, 2-tert-Butyl-6-((3R)-3-(methylamino)pyrrolidin-1-yl)pyrimidin-4-amine]
inhibition at 1 µM (human eosinophils): > 50% | inhibition at 1 µM [1]: > 50%

CNC1CN(c2cc(N)nc(Cc3ccc(F)cc3)n2)C1 [Example 3, 2-(4-Fluorobenzyl)-6-(3-(methylamino)azetidin-1-yl)pyrimidin-4-amine]
inhibition at 1 µM (human eosinophils): > 50% | inhibition at 10 µM [1]: > 50%

CN[C@@H]1CCN(c2cc(N)nc(C(C)C)n2)C1 [Example 12, 2-Isopropyl-6-((3R)-3-(methylamino)pyrrolidin-1-yl)pyrimidin-4-amine]
inhibition at 1 µM (human eosinophils): > 50% | inhibition at 1 µM [1]: > 50%

CNC1CN(c2cc(N)nc(CC(C)(C)C)n2)C1 [Example 21, 2-(2,2-Dimethylpropyl)-6-(3-(methylamino)azetidin-1-yl)pyrimidin-4-amine]
inhibition at 1 µM (human eosinophils): > 50% | inhibition at 10 µM [1]: > 50%

CN[C@@H]1CCN(c2cc(N)nc(CCC3CCCC3)n2)C1 [Example 23, 2-(2-Cyclopentylethyl)-6-((3R)-3-(methylamino)pyrrolidin-1-yl)pyrimidin-4-amine]
inhibition at 10 µM [1]: > 50%

CNC1CN(c2cc(N)nc(C(C)C)n2)C1 [Example 7, 2-Isopropyl-6-(3-(methylamino)azetidin-1-yl)pyrimidin-4-amine]
inhibition at 10 µM [1]: > 50%

CN[C@@H]1CCN(c2cc(N)nc(CC(C)C)n2)C1 [Example 1, 2-Isobutyl-6-((3R)-3-(methylamino)pyrrolidin-1-yl)pyrimidin-4-amine]
inhibition at 1 µM (human eosinophils): > 50% | inhibition at 10 µM [1]: > 50%

CNC1CN(c2cc(N)nc(C3CCCC3)n2)C1 [Example 19, 2-Cyclopentyl-6-(3-(methylamino)azetidin-1-yl)pyrimidin-4-amine]
inhibition at 1 µM (human eosinophils): > 50% | inhibition at 10 µM [1]: > 50%

CNC1CN(c2cc(N)nc(C3CCC3)n2)C1 [Example 17, 2-Cyclobutyl-6-(3-(methylamino)azetidin-1-yl)pyrimidin-4-amine]
inhibition at 1 µM (human eosinophils): > 50% | inhibition at 10 µM [1]: > 50%

CNC1CN(c2cc(N)nc(CC(C)C)n2)C1 [Example 4, 2-Isobutyl-6-(3-(methylamino)azetidin-1-yl)pyrimidin-4-amine]
inhibition at 1 µM (human eosinophils): > 50% | inhibition at 10 µM [1]: > 50%

CNC1CN(c2cc(N)nc(C3CC3)n2)C1 [Example 5, 2-Cyclopropyl-6-(3-(methylamino)azetidin-1-yl)pyrimidin-4-amine]
inhibition at 10 µM [1]: > 50%

CNC1CN(c2cc(N)nc(COc3ccccc3)n2)C1 [Example 9, 6-(3-(methylamino)azetidin-1-yl)-2-(phenoxymethyl)pyrimidin-4-amine]
inhibition at 10 µM [1]: > 50%

CN[C@@H]1CCN(c2cc(N)nc(C3CCCC3)n2)C1 [Example 20, 2-Cyclopentyl-6-((3R)-3-(methylamino)pyrrolidin-1-yl)pyrimidin-4-amine]
inhibition at 1 µM (human eosinophils): > 50% | inhibition at 10 µM [1]: > 50%

CNC1CN(c2cc(N)nc(C(C)(C)C)n2)C1 [Example 6, 2-tert-Butyl-6-(3-(methylamino)azetidin-1-yl)pyrimidin-4-amine]
inhibition at 10 µM [1]: > 50%

CNC1(C)CN(c2cc(N)nc(CC(C)C)n2)C1 [Example 15, 2-Isobutyl-6-(3-methyl-3-(methylamino)azetidin-1-yl)pyrimidin-4-amine]
inhibition at 1 µM (human eosinophils): > 50% | inhibition at 10 µM [1]: > 50%

CN[C@@H]1CCN(c2cc(N)nc(CC3CCCCC3)n2)C1 [Example 2, 2-Cyclohexylmethyl-6-((3R)-3-(methylamino)pyrrolidin-1-yl)pyrimidin-4-amine]
inhibition at 1 µM (human eosinophils): > 50% | inhibition at 10 µM [1]: > 50%

CC(C)Cc1nc(N)cc(N2CC(N)C2)n1 [Example 14, 6-(3-Aminoazetidin-1-yl)-2-isobutylpyrimidin-4-amine]
inhibition at 10 µM [1]: > 50%

CN[C@@H]1CCN(c2cc(N)nc(C3CCC3)n2)C1 [Example 18, 2-Cyclobutyl-6-((3R)-3-(methylamino)pyrrolidin-1-yl)pyrimidin-4-amine]
inhibition at 1 µM (human eosinophils): > 50% | inhibition at 10 µM [1]: > 50%

CN[C@@H]1CCN(c2cc(N)nc(COc3ccccc3)n2)C1 [Example 13, 6-((3R)-3-(methylamino)pyrrolidin-1-yl)-2-(phenoxymethyl)pyrimidin-4-amine]
inhibition at 10 µM [1]: > 50%
